The values below are quoted from earlier work in patent publication US8568779B2, “Method for producing coenzyme Q10 particle” (Kaneka Corporation, priority 2007, dated 2013).

The conditions of the data set: composition containing reduced coenzyme Q10 versus oxidized coenzyme Q10 alone.

`COc1c(O)c(C)c(C/C=C(\C)CC/C=C(\C)CC/C=C(\C)CC/C=C(\C)CC/C=C(\C)CC/C=C(\C)CC/C=C(\C)CC/C=C(\C)CC/C=C(\C)CCC=C(C)C)c(O)c1OC` [reduced coenzyme Q10]: the oral absorbability result is given as “superior to conventional oxidized coenzyme Q10 alone”.
